Results: patent US6872719B1, “Phenylalanine enamide derivatives” (Celltech R & D Limited, priority 2002, dated 2005)

Biological target: T1, α4β1 integrin (Homo sapiens, UniProt P05556+P13612)
T1 construct: 2.5×10^5 Jurkat cells in the presence or absence of titrated test compounds; endogenous in cells; host or cells: Jurkat cells
Test: α4β1 Integrin-Dependent Jurkat Cell Adhesion to VCAM-Ig
Format: cell-based
Conditions: inhibition of Jurkat cell adhesion to 2d VCAM-1-hFc
Description: α4β1 Integrin-Dependent Jurkat Cell Adhesion to VCAM-Ig
96 well NUNC plates were coated with F(ab)2 fragment goat anti-human IgG Fcγ-specific antibody [Jackson Immuno Research 109-006-098: 100 μl at 2 μg/ml in 0.1M NaHCO3, pH 8.4], overnight at 4°. The plates were washed (3×) in phosphate-buffered saline (PBS) and then blocked for 1 h in PBS/1% BSA at room temperature on a rocking platform. After washing (3× in PBS) 35 ng/ml of purified 2d VCAM-1-hFc diluted in PBS/1% BSA was added and the plates left for 60 minutes at room temperature on a rocking platform. The plates were washed (3× in PBS) and the assay then performed at 37° for 30 min in a total volume of 200 μl containing 2.5×10^5 Jurkat cells in the presence or absence of titrated test compounds.
Each plate was washed (2×) with medium and the adherent cells were fixed with 100 μl methanol for 10 minutes followed by another wash. 100 μl 0.25% (w/v) Rose Bengal (Sigma R4507) in PBS was added for 5 minutes at room temperature and the plates washed (3×) in PBS. 100 μl 50% (v/v) ethanol in PBS was added and the plates left for 60 min after which the absorbance (570 nm) was measured.

T1 sequence (P13612 34-1032): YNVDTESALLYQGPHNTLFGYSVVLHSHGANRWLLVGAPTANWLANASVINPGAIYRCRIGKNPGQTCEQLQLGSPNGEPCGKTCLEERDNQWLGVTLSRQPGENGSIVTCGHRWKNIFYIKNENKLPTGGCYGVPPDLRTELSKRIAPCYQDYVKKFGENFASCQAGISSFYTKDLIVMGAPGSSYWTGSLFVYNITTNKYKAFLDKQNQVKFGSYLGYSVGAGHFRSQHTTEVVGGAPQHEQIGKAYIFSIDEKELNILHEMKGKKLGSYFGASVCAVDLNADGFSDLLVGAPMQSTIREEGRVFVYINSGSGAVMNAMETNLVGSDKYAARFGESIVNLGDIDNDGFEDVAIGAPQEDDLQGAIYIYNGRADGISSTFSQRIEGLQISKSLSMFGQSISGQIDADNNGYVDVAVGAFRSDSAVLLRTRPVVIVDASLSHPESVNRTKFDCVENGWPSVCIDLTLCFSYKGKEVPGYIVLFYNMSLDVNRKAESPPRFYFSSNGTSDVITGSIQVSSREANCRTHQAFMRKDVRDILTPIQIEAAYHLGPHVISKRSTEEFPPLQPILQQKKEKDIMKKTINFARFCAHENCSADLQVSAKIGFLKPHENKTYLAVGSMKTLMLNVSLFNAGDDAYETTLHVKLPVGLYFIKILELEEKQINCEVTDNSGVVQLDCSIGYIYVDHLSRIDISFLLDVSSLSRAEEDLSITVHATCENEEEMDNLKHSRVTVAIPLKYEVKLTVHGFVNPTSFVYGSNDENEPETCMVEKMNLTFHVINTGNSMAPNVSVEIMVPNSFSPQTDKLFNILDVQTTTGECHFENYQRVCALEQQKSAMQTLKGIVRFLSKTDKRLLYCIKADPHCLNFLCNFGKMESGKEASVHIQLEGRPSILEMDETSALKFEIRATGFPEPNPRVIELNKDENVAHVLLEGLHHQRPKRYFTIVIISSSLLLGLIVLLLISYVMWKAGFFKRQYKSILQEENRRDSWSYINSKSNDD
T1 sequence (P05556 21-798): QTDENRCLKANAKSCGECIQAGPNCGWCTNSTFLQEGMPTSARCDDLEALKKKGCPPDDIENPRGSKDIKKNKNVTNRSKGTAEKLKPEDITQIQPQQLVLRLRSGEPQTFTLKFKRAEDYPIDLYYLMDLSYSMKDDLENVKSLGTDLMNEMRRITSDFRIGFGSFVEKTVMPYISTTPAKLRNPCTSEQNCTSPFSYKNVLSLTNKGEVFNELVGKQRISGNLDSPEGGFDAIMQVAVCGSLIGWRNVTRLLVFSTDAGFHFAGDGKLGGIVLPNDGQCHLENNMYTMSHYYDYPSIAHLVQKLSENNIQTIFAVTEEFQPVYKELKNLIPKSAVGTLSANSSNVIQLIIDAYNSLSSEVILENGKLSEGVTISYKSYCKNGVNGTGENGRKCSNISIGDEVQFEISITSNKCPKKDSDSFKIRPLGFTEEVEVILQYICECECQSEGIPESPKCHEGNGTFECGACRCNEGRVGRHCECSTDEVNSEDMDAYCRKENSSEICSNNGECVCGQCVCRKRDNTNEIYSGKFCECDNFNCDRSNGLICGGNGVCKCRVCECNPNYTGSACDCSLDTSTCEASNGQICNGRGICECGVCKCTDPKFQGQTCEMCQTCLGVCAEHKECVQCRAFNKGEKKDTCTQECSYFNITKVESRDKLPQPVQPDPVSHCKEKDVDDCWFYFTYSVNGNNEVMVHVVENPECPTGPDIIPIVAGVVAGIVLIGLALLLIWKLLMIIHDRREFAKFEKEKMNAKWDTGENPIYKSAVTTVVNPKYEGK

IC50: 4 nM
SMILES: O=C(Nc1ccc(C[C@H](NC2=C(Br)C(=O)C23CCCCC3)C(=O)OCCO)cc1)c1c(Cl)cncc1Cl [Example 1, 2-Hydroxyethyl (2S)-2-(2-bromo-3-oxo-spiro[3,5]non-1-en-1-ylamino)-3-{4-[(3,5-dichlorolsonicotinoyl)amino]phenyl}propanoate]
